Experiments:
[1] = test system: HBV DNA; experiment: Antiviral activity: inhibition of HBV DNA in supernatant of HepG 2.2.15 cells (dot blot hybridization); format: cell-based, hepatitis B virus (HBV); settings: for IC50: Hepatitis B virus, HepG2.2.15, 192 h, HepG 2.2.15 cells, 8 days incubation, hepatitis B-specific band reduced by 50% vs untreated sample, read-out: IC50 (half-maximum inhibitory concentration, HBV DNA); for SI: selectivity index, from TC50 and IC50 in HepG 2.2.15 cells
Procedure: The antiviral activity of the compounds according to the present invention was determined by the methods described by Sells et al. (M. A. Sells, M. L. Chen, g. Acs, Proc. Natl. Acad. Sci., 1987, 84, 1005-1009) and Korba et al., (B. E. Korba, J. L. Gerin, Antiviral Research, 1992, 19. 55-70).
(§1) The antiviral tests were carried out in 96-well microtiter plates. Only growth medium and HepG 2.2.15 cells were added to the first vertical row of the plate as a blank control.
(§2) Stock solutions of the test compounds (50 mM) were first dissolved in DMSO, and further dilutions were prepared in the growth medium of HepG 2.2.15 cell. The compounds according to the present invention, usually in a test concentration of 100 μg/ml (1st test concentration), were pipetted into each well of the second vertical test row of the microtiter plate and subsequently diluted with growth medium plus 2% of foetal calf serum (volume 25 μl) by 2 fold each time, up to 2^10-fold.
225 μl of a HepG 2.2.15 cell suspension (5×10^4 cells/ml) in growth medium plus 2% foetal calf serum were then added to each well of the 96-well microtiter plate.
The test mixture was incubated at 37° C., 5% CO2 for 4 days. The supernatant was subsequently siphoned off and discarded, and 225 μl of freshly prepared growth medium were added to each well. The compounds according to the present invention were added again in a volume 25 μl. The mixture were incubated from another 4 days.
The supernatants were subsequently harvested and siphoned in vacuum onto 96-well dot blot chambers covered with a nylon membrane (in accordance with the instructions of the manufacturer). […]
The viral DNA of the treated HepG 2.2.15 cells on the nylon filter membrane was usually determined using non-radioactive digoxigenin-labelled hepatitis B-specific DNA probes which were in each case labelled with digoxigenin, purified and used for hybridization in accordance with the instructions of the manufacturer.
Briefly speaking, the prehybridization and hybridization were carried out in 5×SSC, 1× blocking agent, 0.1% N-lauroylsacosine, 0.02% SDS and 100 μg of DNA from herring sperm. […] The filler membrane was subsequently washed and the antibodies against digoxigenin of HBV DNA were determined.
The digoxigenin-labeled DNA was detected immunologically in accordance with the instructions of the manufacturer.
Briefly speaking, the filler membrane were washed and prehybridized with a blocking agent (in accordance with the instructions of the manufacturer). […] The chemiluminescent signals of the Hepatitis B-specific DNA were measured by exposing of the filters to an X-ray film (incubation for 10 minutes to 2 hours depending on the signal strength) to determine the half-maximum inhibitory concentration (IC50). […]

[2] = Cytotoxicity in HepG 2.2.15 cells (cell morphology under microscope after 8 days, Reed & Muench); format: cell-based; settings: human, pathological changes after 8 days, read-out: TC50 (half-maximum toxic concentration)
Procedure: as §1
as §2, with “2^10-fold. […]” for “2^10-fold.”
Substances-induced cytotoxic or cytostatic changes in HepG 2.2.15 cells were determined as changes in the cell morphology, for example under an optical microscope. […] The average degree of the pathological change and percent inhibition at each concentration were calculated, and a half-maximum toxic concentration (TC50) and a maximum non-toxic concentration TC0 were determined according to Reed & Muench methods. […]
The cytotoxicity and antiviral activity of the compounds according to the present invention were determined by the methods as described above, and the results were shown in Table 1.

For `COC(=O)C1=C(C)NC(c2cccs2)=NC1c1ccccc1` (stereo not drawn) [Example 4, methyl 2-(thien-2-yl)-4-phenyl-6-methyl-1,4-dihyropyrimidin-5-carboxylate], the IC50 [1] was 29.6 µM, the SI [1] was 3.56 and the CC50 at 8 days [2] was 105 µM.

For `COC(=O)C1=C(C)NC(c2cccs2)=NC1c1ccc(F)cc1Cl` (stereo not drawn) [Example 1, methyl 2-(thien-2-yl)-4-(2-chloro-4-fluorophenyl)-6-methyl-1,4-dihyropyrimidin-5-carboxylate], the IC50 [1] was 0.007 µM, the SI [1] was >10^5 and the CC50 at 8 days [2] was 1100 µM.
